In patent US7582762B2, “Salt and crystalline forms of (2R)-anti-5-{3-[4-(10,11-difluoromethanodibenzosuber-5-YL)piperazin-1-YL]-2-hydroxypropoxy}quinoline” (Eli Lilly and Company, priority 2001, dated 2009):
“Also recorded” adds a separate entry of the source. Counter-ions that a name gives are not always drawn.

Tests used:
[1] = Moisture sorption profile over relative humidity; type: physicochemical; settings: over a wide range of relative humidity; compared with trihydrochloride salt/crystal (Form I)
[2] = Incorporation of organic solvents into the crystal lattice; type: physicochemical; settings: compared with trihydrochloride salt/crystal (Form I)
[3] = Thermodynamic stability of salt and crystal forms; settings: for thermodynamic stability relative to trihydrochloride (Form I): compared with trihydrochloride salt/crystal (Form I), hydrochloride

SMILES | moisture sorption (water sorbed) [1] | incorporation of organic solvents ([2]; hydrochloride) | most stable form ([3]; aqueous and acidic media) | thermodynamic stability relative to trihydrochloride (Form I) [3] | most stable form ([3]; organic solutions and solid state at ambient temperature/relative humidity) | incorporation of organic solvents [2]
O[C@@H](COc1cccc2ncccc12)CN1CCN([C@@H]2c3ccccc3[C@@H]3[C@H](c4ccccc42)C3(F)F)CC1 [Form III, (2R)-anti-5-{3-[4-(10,11-difluoromethanodibenzosuber-5-yl)piperazin-1-yl]-2-hydroxypropoxy}quinoline 2.5 hydrochloride] | sorb less water overall over a wide range of relative humidity | do not incorporate organic solvents as readily as Form I; also recorded: do not incorporate organic solvents as readily as the trihydrochloride salt and crystal | most stable in aqueous and acidic media | thermodynamically more stable than Form I; also recorded: thermodynamically more stable than the trihydrochloride salt and crystal | – | –
O[C@@H](COc1cccc2ncccc12)CN1CCN([C@@H]2c3ccccc3[C@@H]3[C@H](c4ccccc42)C3(F)F)CC1 [Form II, (2R)-anti-5-{3-[4-(10,11-difluoromethanodibenzosuber-5-yl)piperazin-1-yl]-2-hydroxypropoxy}quinoline 2.5 hydrochloride] | sorb less water overall over a wide range of relative humidity | do not incorporate organic solvents as readily as Form I; also recorded: do not incorporate organic solvents as readily as the trihydrochloride salt and crystal | – | thermodynamically more stable than Form I; also recorded: thermodynamically more stable than the trihydrochloride salt and crystal | most stable in organic solutions and in the solid state at ambient temperature/relative humidity | –
Cl.Cl.Cl.Cl.Cl.O[C@@H](COc1cccc2ncccc12)CN1CCN(C2c3ccccc3C3C(c4ccccc42)C3(F)F)CC1.O[C@@H](COc1cccc2ncccc12)CN1CCN(C2c3ccccc3C3C(c4ccccc42)C3(F)F)CC1 (stereo partly drawn) [2.5 salt, (2R)-anti-5-{3-[4-(10,11-difluoromethanodibenzosuber-5-yl)piperazin-1-yl]-2-hydroxypropoxy}quinoline 2.5 hydrochloride] | sorb less water overall over a wide range of relative humidity | – | – | – | – | do not incorporate organic solvents as readily as the trihydrochloride salt and crystal
